# Read-outs that look alike come from different tables or passages of the source.
# How the values were obtained:
# [1] = tested on: Myzus persicae; experiment: Myzus test (spray treatment); format: in vivo; conditions: foliar, read-out: Wirkung
# From the text: Myzus-Test (Spritzbehandlung)
# Zur Herstellung einer zweckmäßigen Wirkstoffzubereitung vermischt man 1 Gewichtsteil Wirkstoff mit den angegebenen Mengen Lösungsmittel und Emulgator und verdünnt das Konzentrat mit emulgatorhaltigem Wasser auf die gewünschte Konzentration. Chinakohlblattscheiben (Brassica pekinensis), die von allen Stadien der Grünen Pfirsichblattlaus (Myzus persicae) befallen sind, werden mit einer Wirkstoffzubereitung der gewünschten Konzentration gespritzt. Nach der gewünschten Zeit wird die Wirkung in % bestimmt. Dabei bedeutet 100 %, dass alle Blattläuse abgetötet wurden; 0 % bedeutet, dass keine Blattläuse abgetötet wurden. Bei diesem Test zeigen z. B. die folgenden Verbindungen der Herstellungsbeispiele eine Wirkung von ≥ 80 % bei einer Aufwandmenge von 500 g/ha: • Bsp. Nr. 2, 3, 31, 32, 33, 36, 37, 39, 40, 41, 42, 43, 44, 45, 46, 63, 64, 65, 66, 86, 87, 88, 90, 95, 96, 97, 99, 103
# [2] = logP (HCOOH); conditions: hplc, formic acid
# [3] = physchem; conditions: hplc, formic acid
# [4] = tested on: Meloidogyne incognita; experiment: Meloidogyne test (spray treatment), gall formation on lettuce roots; format: in vivo; conditions: 20 ppm; 100 % = no galls found
# From the text: Meloidogyne-Test (Spritzbehandlung)
# Zur Herstellung einer zweckmäßigen Wirkstoffzubereitung vermischt man 1 Gewichtsteil Wirkstoff mit der angegebenen Menge Lösungsmittel und verdünnt das Konzentrat mit Wasser auf die gewünschte Konzentration. Gefäße werden mit Sand, Wirkstofflösung, Meloidogyne incognita-Ei-Larven-Suspension und Salatsamen gefüllt. Die Salatsamen keimen und die Pflänzchen entwickeln sich. An den Wurzeln entwickeln sich die Gallen. Nach der gewünschten Zeit wird die nematizide Wirkung an Hand der Gallenbildung in % bestimmt. Dabei bedeutet 100 %, dass keine Gallen gefunden wurden; 0 % bedeutet, dass die Zahl der Gallen an den behandelten Pflanzen der der unbehandelten Kontrolle entspricht. Bei diesem Test zeigen z. B. die folgenden Verbindungen der Herstellungsbeispiele eine Wirkung von ≥ 80 % bei einer Aufwandmenge von 20 ppm: • Bsp. Nr. 15, 16, 18
# [5] = tested on: Boophilus microplus; experiment: Boophilus microplus test (injection); format: in vivo; conditions: 20 µg/Tier; injection into abdomen; 100 % = no tick laid fertile eggs
# From the text: Boophilus microplus -Test (Injektion)
# Zur Herstellung einer zweckmäßigen Wirkstoffzubereitung vermischt man 1 Gewichtsteil Wirkstoff mit der angegebenen Menge Lösungsmittel und verdünnt das Konzentrat mit Lösungsmittel auf die gewünschte Konzentration. Die Wirkstofflösung wird in das Abdomen (Boophilus microplus) injiziert, die Tiere werden in Schalen überführt und in einem klimatisierten Raum aufbewahrt. Nach der gewünschten Zeit wird die Wirkung in % bestimmt. Dabei bedeutet 100%, dass keine Zecke fertile Eier gelegt hat. Bei diesem Test zeigen z. B. die folgenden Verbindungen der Herstellungsbeispiele eine Wirkung von = 80 % bei einer Aufwandmenge von 20 µg/Tier: • Bsp. Nr. 43, 44, 45, 46, 63, 64, 65, 66
# [6] = 500 g/ha, spray on Brassica pekinensis leaf discs, 100 % = all aphids killed
smiles,measurement,setting,value
CC(N=C1NCCO1)c1ccco1 (stereo not drawn) [Beispiel 95],mortality at 500 g/ha,[1]; in Brassica rapa,≥ 80%
CCC(N=C1OCCN1C(=O)NCCCl)c1ccc(C(F)(F)F)cn1 (stereo not drawn) [Beispiel 5],chromatographic logP,[2],2.15
c1cc(CN=C2NCCO2)cs1 [Beispiel 32],mortality at 500 g/ha,[1]; in Brassica rapa,≥ 80%
same,chromatographic logP,[3],-0.05
CCOC(=O)CNC(=S)N1CCOC1=NC(C)c1ccnc(Cl)c1 (stereo not drawn) [Beispiel 198],chromatographic logP,[2],3.14
CCNC(=S)N1CCOC1=NC(C)c1ccncc1 (stereo not drawn) [Beispiel 18],nematizide Wirkung an Hand der Gallenbildung,[4],≥ 80%
same,chromatographic logP,[2],1.07
CCC(N=C1NCCO1)c1ccccn1 (stereo not drawn) [Beispiel 12],chromatographic logP,[3],-0.01
CNC(=S)N1CCOC1=NC(C)c1cc2ccccc2o1 (stereo not drawn) [Beispiel 104],chromatographic logP,[2],3.64
CCOC(=O)CNC(=S)N1CCOC1=NCc1ccc(Cl)nc1 [Beispiel 188],chromatographic logP,[2],2.54
CCC(N=C1OCCN1C(=S)NCCOC)c1cc(Br)cs1 (stereo not drawn) [Beispiel 30],chromatographic logP,[2],4.48
CNC(=S)N1CCOC1=NC(C)c1ccco1 (stereo not drawn) [Beispiel 96],mortality at 500 g/ha,[1]; [6],≥ 80%
same,chromatographic logP,[2],2.38
CCC(N=C1NCCO1)c1ccc(C(F)(F)F)cn1 (stereo not drawn) [Beispiel 4],chromatographic logP,[3],0.97
c1coc(CN=C2NCCO2)c1 [Beispiel 90],mortality at 500 g/ha,[1]; in Brassica rapa,≥ 80%
same,chromatographic logP,[3],-0.23
CCC(N=C1OCCN1C(=S)NC)c1cccs1 (stereo not drawn) [Beispiel 86],mortality at 500 g/ha,[1]; [6],≥ 80%
same,chromatographic logP,[2],3.46
CCC(N=C1OCCN1C(=S)NCCOC)c1cccs1 (stereo not drawn) [Beispiel 88],mortality at 500 g/ha,[1]; [6],≥ 80%
same,chromatographic logP,[2],3.71
CCn1ccc(C(C)N=C2OCCN2C(=S)NC)n1 (stereo not drawn) [Beispiel 76],chromatographic logP,[2],1.45
COCCNC(=S)N1CCOC1=NC(C)c1cc2ccccc2o1 (stereo not drawn) [Beispiel 106],chromatographic logP,[2],3.9
CC(N=C1NCCO1)c1cc2ccccc2o1 (stereo not drawn) [Beispiel 103],mortality at 500 g/ha,[1]; in Brassica rapa,≥ 80%
same,chromatographic logP,[3],0.93
CCNC(=S)N1CCOC1=NC(C)c1cccs1 (stereo not drawn) [Beispiel 44],mortality at 500 g/ha,[1]; [6],≥ 80%
same,Wirkung,[5],80%
same,chromatographic logP,[2],3.58
CCNC(=S)N1CCOC1=NC(CC)c1ccc(C(F)(F)F)cn1 (stereo not drawn) [Beispiel 7],chromatographic logP,[2],3.85
CCC(N=C1OCCN1C(=O)NCCCl)c1ccc(C)c(C)n1 (stereo not drawn) [Beispiel 9],chromatographic logP,[2],1.18
CNC(=S)N1CCOC1=NC(C)c1cccs1 (stereo not drawn) [Beispiel 43],mortality at 500 g/ha,[1]; [6],≥ 80%
same,Wirkung,[5],80%
same,chromatographic logP,[2],2.99
C[C@H](N=C1OCCN1C(=S)NCC(F)(F)F)c1cccs1 [Beispiel 66],mortality at 500 g/ha,[1]; [6],≥ 80%
same,Wirkung,[5],80%
same,chromatographic logP,[2],3.98
CCC(N=C1OCCN1C(=S)NCCOC)c1ccc(C)c(C)n1 (stereo not drawn) [Beispiel 11],chromatographic logP,[2],1.33
c1csc(CN=C2NCCO2)c1 [Beispiel 39],mortality at 500 g/ha,[1]; in Brassica rapa,≥ 80%
same,chromatographic logP,[3],-0.08
CC(C)NC(=S)N1CCOC1=NCc1ccc(Cl)nc1 [Beispiel 187],chromatographic logP,[3],3.14
FC(F)(F)CNC(=S)N1CCOC1=NCc1ccco1 [Beispiel 94],chromatographic logP,[2],3.29
"CCNC(=S)N1CCO/C1=N/C(C)c1ccccn1 (stereo not drawn) [Beispiel 2, (2E)-N-ethyl-2-[(1-pyridin-2-ylethyl)imino]-1,3-oxazolidine-3-carbothioamid]",mortality at 500 g/ha,[1]; [6],≥ 80%
same,chromatographic logP,[2],1.26
CCNC(=S)N1CCOC1=NC(CC)c1cc(Br)cs1 (stereo not drawn) [Beispiel 31],mortality at 500 g/ha,[1]; [6],≥ 80%
same,chromatographic logP,[2],4.72
CCC(N=C1OCCN1C(=S)NCCOC)c1ccc(C(F)(F)F)cn1 (stereo not drawn) [Beispiel 6],chromatographic logP,[2],3.69
CC(N=C1OCCN1C(=S)NCC(F)(F)F)c1cccs1 (stereo not drawn) [Beispiel 46],mortality at 500 g/ha,[1]; [6],≥ 80%
same,Wirkung,[5],80%
same,chromatographic logP,[2],3.99
COCCNC(=S)N1CCOC1=NCc1cccs1 [Beispiel 42],mortality at 500 g/ha,[1]; [6],≥ 80%
same,chromatographic logP,[2],2.84
Cn1cccc1CN=C1NCCO1 [Beispiel 80],chromatographic logP,[3],-0.09
COCCNC(=S)N1CCOC1=NC(C)c1cccs1 (stereo not drawn) [Beispiel 45],mortality at 500 g/ha,[1]; [6],≥ 80%
same,Wirkung,[5],80%
same,chromatographic logP,[2],3.28
CC(N=C1OCCN1C(=S)NCC(F)(F)F)c1cc2ccccc2o1 (stereo not drawn) [Beispiel 107],chromatographic logP,[2],4.47
COCCNC(=S)N1CCOC1=NC(C)c1ccccn1 (stereo not drawn) [Beispiel 3],mortality at 500 g/ha,[1]; [6],≥ 80%
same,chromatographic logP,[2],1.12
C[C@H](N=C1NCCO1)c1cccs1 [Beispiel 37],mortality at 500 g/ha,[1]; in Brassica rapa,≥ 80%
same,chromatographic logP,[3],0.33
CCNC(=S)N1CCOC1=NCc1ccco1 [Beispiel 92],chromatographic logP,[2],2.58
CCNC(=S)N1CCOC1=NC(C)c1cccnc1 (stereo not drawn) [Beispiel 15],nematizide Wirkung an Hand der Gallenbildung,[4],≥ 80%
same,chromatographic logP,[2],1.16
CNC(=S)N1CCOC1=NCc1cccs1 [Beispiel 40],mortality at 500 g/ha,[1]; [6],≥ 80%
same,chromatographic logP,[2],2.45
CCNC(=S)N1CCOC1=N[C@@H](C)c1cccs1 [Beispiel 64],mortality at 500 g/ha,[1]; [6],≥ 80%
same,Wirkung,[5],80%
same,chromatographic logP,[2],3.59
COCCNC(=S)N1CCOC1=NCc1ccco1 [Beispiel 93],chromatographic logP,[2],2.84
CNC(=S)N1CCOC1=NC(C)c1ccnc(Cl)c1 (stereo not drawn) [Beispiel 195],chromatographic logP,[2],2.58
COCCNC(=S)N1CCOC1=NCc1ccsc1 [Beispiel 34],chromatographic logP,[2],2.71
CNC(=S)N1CCOC1=N[C@@H](C)c1cccs1 [Beispiel 63],mortality at 500 g/ha,[1]; [6],≥ 80%
same,Wirkung,[5],80%
same,chromatographic logP,[2],3.02
CCNC(=S)N1CCOC1=NC(CC)c1ccc(Cl)s1 (stereo not drawn) [Beispiel 108],chromatographic logP,[2],4.96
CC(N=C1NCCO1)c1cccs1 (stereo not drawn) [Beispiel 36],mortality at 500 g/ha,[1]; in Brassica rapa,≥ 80%
same,chromatographic logP,[3],0.28
CCC(N=C1NCCO1)c1ccc(C)c(C)n1 (stereo not drawn) [Beispiel 8],chromatographic logP,[3],0.06
CNC(=S)N1CCOC1=NCc1ccsc1 [Beispiel 35],chromatographic logP,[2],1.83
CCNC(=S)N1CCOC1=NC(CC)c1cccs1 (stereo not drawn) [Beispiel 87],mortality at 500 g/ha,[1]; [6],≥ 80%
same,chromatographic logP,[2],4.06
CCNC(=S)N1CCOC1=NC(C)c1ccnc(Cl)c1 (stereo not drawn) [Beispiel 196],chromatographic logP,[2],3.07
CC(N=C1NCCO1)c1ccnc(Cl)c1 (stereo not drawn) [Beispiel 194],chromatographic logP,[3],0.02
COCCNC(=S)N1CCOC1=NC(C)c1ccncc1 (stereo not drawn) [Beispiel 19],chromatographic logP,[2],1
C[C@H](N=C1NCCS1)c1cccs1 [Beispiel 101],chromatographic logP,[3],0.54
CCNC(=S)N1CCOC1=NC(C)c1cc2ccccc2o1 (stereo not drawn) [Beispiel 105],chromatographic logP,[2],4.18
CCNC(=S)N1CCOC1=NC(CC)c1ccc(C)c(C)n1 (stereo not drawn) [Beispiel 10],chromatographic logP,[2],1.14
CNC(=S)N1CCOC1=NCc1ccco1 [Beispiel 91],chromatographic logP,[2],1.89
COCCNC(=S)N1CCOC1=NC(C)c1ccnc(Cl)c1 (stereo not drawn) [Beispiel 197],chromatographic logP,[2],2.83
COCCNC(=S)N1CCOC1=NC(C)c1cccnc1 (stereo not drawn) [Beispiel 16],nematizide Wirkung an Hand der Gallenbildung,[4],≥ 80%
same,chromatographic logP,[2],1.07
CCNC(=S)N1CCOC1=NCc1ccsc1 [Beispiel 33],mortality at 500 g/ha,[1]; [6],≥ 80%
same,chromatographic logP,[2],2.56
CCNC(=S)N1CCOC1=NC(CC)c1ccccn1 (stereo not drawn) [Beispiel 13],chromatographic logP,[2],1.53

# — patent EP2070923A1, “Insecticide iminoheterocycles” (priority 2007, dated 2009)
